Assay results: patent publication US20250302798A1, “STING INHIBITORS AND USE THEREOF” (CARMEL HAIFA UNIVERSITY ECONOMIC CORPORATION LTD., priority 2022, published 2025)
Entries after “also recorded” stand apart in the source; their conditions may differ. Values belong to the molecule of their own block, whether it stands above or below them.

Assays:
STING [1] = target: T1, STING (Mus musculus, UniProt Q3TBT3); assay: Cytokine secretion (ELISA) from DMXAA-activated resolution phase macrophages (zymosan A peritonitis); assay type: cell-based, mice; parameters: Mice were injected with zymosan A (1 mg/mouse), and peritoneal cells thereof were recovered after 66 hrs; endogenous in cells; host or cells: F4/80+ peritoneal exudate macrophages from mice with zymosan A peritonitis; conditions: for TNFα secretion / IL-10 secretion: individual compounds 50-5,000 nM + DMXAA 5-10 μM; for Mode of action in resolution phase macrophages: summary heading; for TNFα induced by DMXAA: at 5000 nM
T1 sequence (Q3TBT3 1-378): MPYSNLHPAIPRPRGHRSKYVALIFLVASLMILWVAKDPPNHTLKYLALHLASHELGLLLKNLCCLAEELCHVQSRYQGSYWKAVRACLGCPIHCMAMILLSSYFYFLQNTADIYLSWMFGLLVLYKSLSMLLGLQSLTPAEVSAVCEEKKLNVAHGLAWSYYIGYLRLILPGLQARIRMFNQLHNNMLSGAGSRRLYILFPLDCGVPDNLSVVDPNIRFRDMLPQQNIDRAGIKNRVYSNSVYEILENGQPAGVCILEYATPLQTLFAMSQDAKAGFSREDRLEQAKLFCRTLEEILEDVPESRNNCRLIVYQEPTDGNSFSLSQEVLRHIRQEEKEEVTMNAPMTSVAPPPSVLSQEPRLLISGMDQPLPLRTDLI
Procedure: Mice were injected with zymosan A (1 mg/mouse), and peritoneal cells thereof were recovered after 66 hrs. Exudate macrophages were isolated and incubated (1×10^6 cells in 0.5 mL of culture media) overnight with a premade mixture of the individual compounds in clusters 1 and 9 (5,000 nM; 5A and 5C), or the individual compounds (500-5,000 nM), or vehicle and DMXAA (5-10 μM). Next, culture supernatants were collected and TNFα (5A-5B) or IL-10 (5C-5D) levels were determined by standard ELISA (Biolegend).
(§1) Splenocytes were isolated from the spleens of unchallenged C57BL/6 WT or STING-KO mice by meshing against a grid. Peritoneal macrophages were isolated from mice undergoing peritonitis for 66 hr by washing with 5 ml PBS. The cellular exudate was stained with phycoerythrin (PE)-conjugated anti-F4/80 antibodies (bioLegend, CA, USA) and macrophages were isolated using magnetic beads (STEMCELL Technologies Inc, Vancouver, Canada). Isolated splenocytes or macrophages (0.5-1×10^6 cells per well) were incubated with 50-5,000 nM of individual substances or pooled clusters thereof. Then, the cells were treated with vehicle or 5-10 μM DMXAA (Cayman Chemical, MI, USA) to activate STING. After 24 hr, culture supernatants were collected and evaluated for levels of: TNFα, IFN-β and/or IL-10 using, standard ELISA (BioLegend, CA, USA).
To use a more physiological setting, macrophages were isolated from zymosan A-induced peritonitis and treated with the compounds alone (5,000 nM) or compounds (50-5,000 nM) with DMXAA, or DMXAA alone.

STING [2] = target: T1, STING; assay: Cytokine secretion (ELISA) from DMXAA-activated splenocytes; assay type: cell-based, C57BL/6 mice; parameters: Splenocytes were recovered from C57BL/6 WT female mice; endogenous in cells; host or cells: primary splenocytes of C57BL/6 mice; conditions: for Mode of action on STING (overall): summary over various cell types, DMXAA stimulation; for STING inhibition (ranking): at 5,000 nM, resting splenocytes
Procedure: FIGS. 1A-1B include bar graphs showing that Cluster 1 and 9 inhibit tumor necrosis factor alpha (TNFα) while only cluster 1 promotes IL-10 secretion from resting splenocytes activated by the selective STING agonist DMXAA. Splenocytes were recovered from C57BL/6 WT or STING^−/− female mice and were incubated (1×10^6 cells in 0.5 mL of culture media) overnight with a premade mixture of the individual compounds in each cluster (5-500 nM) or vehicle, and DMXAA (10 μM). Next, culture supernatants were collected and TNFα(1A) or IL-10 (1B) levels were determined by standard enzyme-linked immunosorbent assay ELISA (Biolegend).
(§2) FIGS. 2A-2D include graphs showing that compounds 5.9 and 7.9 inhibit TNFα and IL-10 secretion from DMXAA-activated splenocytes. Splenocytes were recovered from C57BL/6 WT female mice and incubated (1×10^6 cells in 0.5 mL of culture media) overnight with the individual compounds from cluster 9 (50-5,000 nM) or vehicle and DMXAA (5-10 μM; 2A-2B) or at 5,000 nM without DMXAA (2C-2D). Next, culture supernatants were collected and TNFα (2A, and 2C) or IL-10 (2B, and 2D) levels were determined by standard ELISA. In 2A-2B, black horizontal line indicates secretion level from vehicle-treated cells.
FIGS. 3A-3H include graphs and an image showing that compounds 2.1, 4.1, and 6.1 inhibit TNFα but promote IL-10 and IFN-beta secretion from DMXAA-activated splenocytes. Splenocytes were recovered from C57BL/6 WT female mice and incubated (1×10^6 cells in 0.5 mL of culture media) overnight with the individual compounds from cluster 1 (50-5,000 nM) or vehicle and DMXAA (10 μM; 3A, 3C, and 3E) or at 5,000 nM without DMXAA (3B, 3D, and 3F). Next, culture supernatants were collected and TNFα (3A-3B), IL-10 (3C-3D), or IFN-beta (3E-3F) levels were determined by standard ELISA. In 3A, 3C, and 3E, black horizontal line indicates secretion level from vehicle-treated cells. (3G-3H) Biased STING agonists (BiSTs) enhance DMXAA-induced STING signaling. Splenocytes were treated with 25 μg/ml DMXAA and 50 nM of compound 2.1 for 1-4 hr (3G). Then, the cells were analyzed by immunoblotting for phosphorylated STING, TBK-1, IRF3, and NF-kB, or their unphosphorylated controls, or actin as a loading control. Densitometry analysis for phosphorylated STING (p-STING) and STING proteins (3H) is also shown. Results are representative (3G) or mean±SEM (3H) from 3 repeats. One-way ANOVA, and Tukey HSD test *P<0.05.
as §1
To test which cluster(s) included compounds that modulate STING-mediated cytokine production, wild-type (WT) or STING knockout (−/−) splenocytes were incubated with the selective murine STING agonist DMXAA alone or with 5-500 nM of the pooled individual compounds in each cluster as indicated.
Next, the individual compounds in clusters 1 and 9 were tested at 50-5,000 nM. The first experiment was performed in resting splenocytes as detailed above.

STING [3] = target: T1, STING; assay: Cytokine secretion (ELISA) from splenocytes without DMXAA; assay type: cell-based, C57BL/6 mice; parameters: Splenocytes were recovered from C57BL/6 WT female mice; endogenous in cells; host or cells: primary splenocytes of C57BL/6 mice; conditions: 5,000 nM
Procedure: as §2
FIGS. 3A-3H include graphs and an image showing that compounds 2.1, 4.1, and 6.1 inhibit TNFα but promote IL-10 and IFN-beta secretion from DMXAA-activated splenocytes. […] Next, culture supernatants were collected and TNFα (3A-3B), IL-10 (3C-3D), or IFN-beta (3E-3F) levels were determined by standard ELISA. […] Then, the cells were analyzed by immunoblotting for phosphorylated STING, TBK-1, IRF3, and NF-kB, or their unphosphorylated controls, or actin as a loading control. […]
Splenocytes were isolated from the spleens of unchallenged C57BL/6 WT or STING-KO mice by meshing against a grid. […] After 24 hr, culture supernatants were collected and evaluated for levels of: TNFα, IFN-β and/or IL-10 using, standard ELISA (BioLegend, CA, USA). […]

[4] = test system: LPS-activated splenocytes; assay: Cytokine secretion (ELISA) from LPS-activated splenocytes; assay type: cell-based, C57BL/6 mice; conditions: for IFN-beta secretion / IL-10 secretion / TNFα secretion / LPS-induced cytokine secretion: 5,000 nM + LPS 1 μg/ml; for IFN-beta secretion / IL-10 secretion / TNFα secretion: overnight
Procedure: FIGS. 4A-4C include vertical bar graphs showing that compounds 5.9 and 7.9 inhibit TNFα but promote IL-10 and IFN-beta secretion from lipopolysaccharides (LPS)-activated splenocytes. Splenocytes were recovered from C57BL/6 WT female mice and incubated (1×10^6 cells in 0.5 mL of culture media) overnight with the individual compounds from cluster 9 (5,000 nM) or vehicle and LPS (1 μg/ml). Next, culture supernatants were collected and TNFα (4A), IL-10 (4B), or IFN-beta (4C) levels were determined by standard ELISA.
STING was previously shown to be essential for LPS-induced IRF3 activation and IFN-β production. Therefore, further examination of whether the putative STING antagonists affect LPS-induced cytokine production was carried out.

[5] = individual compounds 50-5,000 nM + DMXAA 5-10 μM, overnight

SMILES: COCC(=O)N(C)C(Cc1ccc(F)cc1)C1CCN(C(=O)c2ccc(-c3ccccc3)cc2)CC1 (stereo not shown) [Compound 3.1, N-[1-[1-(4-biphenylylcarbonyl)-4-piperidinyl]-2-(4-fluorophenyl)ethyl]-2-methoxy-N-methylacetamide]
TNFα secretion (STING [1]): enhanced TNFα only

SMILES: c1ccc(-n2cccc2CN(Cc2cccnc2)Cc2ccc3c(c2)OCO3)nc1 [Compound 4.1, (1,3-benzodioxol-5-ylmethyl)(pyridin-3-ylmethyl)[(1-pyridin-2-yl-1H-pyrrol-2-yl)methyl]amine]
IFN-beta secretion (STING [2]; individual compounds 50-5,000 nM + DMXAA 10 μM, overnight): promote | IL-10 secretion (STING [2]; [5]): induced IL-10 at all concentrations; also recorded: promote | TNFα secretion (STING [2]; [5]): inhibit | IL-10 secretion (STING [2]; individual compounds at 5,000 nM + DMXAA): induces | Mode of action on STING (overall) (STING [2]): biased agonists; also recorded: most efficient biased agonist | IL-10 secretion (STING [3]; without DMXAA): only compound that induced IL-10; also recorded: induces | IL-10 induced by DMXAA (STING [1]; at 500 nM): enhanced | IL-10 induced by DMXAA (STING [1]; at 5,000 nM): not | IL-10 secretion (STING [1]): selective inducer | Mode of action in resolution phase macrophages (STING [1]): Biased Antagonist for TNFα

SMILES: COc1ccccc1CCN1CCCC(CN(C)C(=O)Cc2cn(C)c3ccccc23)C1 (stereo not shown) [Compound 4.9]
STING inhibition (ranking) (STING [2]): Best STING Inhibitors | TNFα secretion (STING [2]; [5]): doing so at lower concentrations

SMILES: CCOC(=O)N1CCC(NCc2cc3ccc(Cl)cc3n(CCOc3ccccc3)c2=O)CC1 [Compound 6.9, ethyl 4-({[7-chloro-2-oxo-1-(2-phenoxyethyl)-1,2-dihydro-3-quinolinyl]methyl}amino)-1-piperidinecarboxylate]
LPS-induced cytokine secretion [4]: much milder effects

Now from value to molecule, other results behind:

STING inhibition (ranking) (STING [2]): Best STING Inhibitors | IL-10 secretion (STING [2]; [5]): inhibit | Mode of action on STING (overall) (STING [2]): very efficient STING inhibitors | TNFα secretion (STING [3]; absence of DMXAA stimulation): inhibited | IL-10 induced by DMXAA (STING [1]; at 5,000 nM): enhanced | TNFα induced by DMXAA (STING [1]): enhanced
SMILES: Cc1ccc2c(-c3cc4c(n(CC5CC5)c3=O)CCN(C(=O)C3=NN(C)C(=O)CC3)C4)cccc2n1 [Compound 5.9, 1-(cyclopropylmethyl)-6-[(1-methyl-6-oxo-1,4,5,6-tetrahydro-3-pyridazinyl)carbonyl]-3-(2-methyl-5-quinolinyl)-5,6,7,8-tetrahydro-1,6-naphthyridin-2(1H)-one]
IFN-beta secretion [4]: enhances; also recorded: significant upregulation; also recorded: promote | IL-10 secretion [4]: enhances; also recorded: significant upregulation; also recorded: promote | TNFα secretion [4]: not and reducing and inhibiting and inhibit | Mode of action in LPS-stimulated splenocytes ([4]; summary statement): biased agonist | TNFα secretion (STING [2]; [5]): doing so at lower concentrations; also recorded: best inhibitor; also recorded: inhibit

STING inhibition (ranking) (STING [2]): Best STING Inhibitors | Mode of action on STING (overall) (STING [2]): biased agonists | IL-10 induced by DMXAA (STING [1]; at 5,000 nM): enhanced | TNFα induced by DMXAA (STING [1]): enhanced
SMILES: Cc1ccc(C(=O)Nc2cnn(-c3ccc(C(=O)N4CCC(c5ccc(F)cc5)C4)cc3)c2)c(C)c1 (stereo not shown) [Compound 6.1, N-[1-(4-{[3-(4-fluorophenyl)-1-pyrrolidinyl]carbonyl}phenyl)-1H-pyrazol-4-yl]-2,4-dimethylbenzamide]
TNFα secretion (STING [2]; [5]): doing so at lower concentrations; also recorded: inhibit

IL-10 secretion (STING [2]; [5]): inhibit | TNFα secretion (STING [2]; [5]): inhibit | Mode of action on STING (overall) (STING [2]): very efficient STING inhibitors | IL-10 secretion (STING [1]): best inhibitor; also recorded: inhibits | TNFα secretion (STING [1]): best inhibitor; also recorded: inhibits | Mode of action in resolution phase macrophages (STING [1]): Very Efficient STING Inhibitor
SMILES: O=C(CCc1c[nH]c2ccccc12)N1CCOc2ccc(CN3CCN(c4ccccn4)CC3)cc2C1 [Compound 7.9, 4-[3-(1H-indol-3-yl)propanoyl]-7-{[4-(2-pyridinyl)-1-piperazinyl]methyl}-2,3,4,5-tetrahydro-1,4-benzoxazepine]
LPS-induced cytokine secretion [4]: much milder effects | IFN-beta secretion [4]: promote | IL-10 secretion [4]: promote | TNFα secretion [4]: inhibit
